Assay results from patent publication US20250296938A1, “Compounds that Interact with the Ras Superfamily for the Treatment of Cancers, Inflammatory Diseases, Rasopathies, and Fibrotic Disease” (SHY Therapeutics, LLC, priority 2018, published 2025).
Like-named read-outs stand apart in the source and are kept apart here.

System: MIA PaCa-2 pancreatic cancer cell line
Test: Cell proliferation assay (DAPI)
Assay type: cell-based
Settings: Homo sapiens; for inhibition at 10 µM: read-out: % Inhibition of cell proliferation, MIA PaCa-2 % inh
Procedure: Cell lines: Human NSCLC cells NCI-H1975 and NCI-H1299, and tumor-derived pancreatic cancer cell lines Panc-1, MIA-PACA2, and BxPC3, were all purchased from American Type Culture Collection and grown in complete RPMI medium (BxPC3, NCI-H1975 and NCI-H1299) or DMEM-High Glucose (Panc1 and MIA-PaCa-2), supplemented with penicillin (100 U/mL), streptomycin (100 μg/mL), and 10% heat-inactivated FBS at 37° C. in a humidified incubator with 5% CO2.
Method: Cells were plated at 2000 to 5000 cells/well density in 96-wells plate and cultured ON. Small molecules to be tested were added to the cells in the final concentration of 10 µM in the presence of 0.3% DMSO and 10% FBS, and incubated for 2-4 days at 37° C. in a humidified incubator with 5% CO2. For IC50 value determination, serial dilutions of compounds were added to cells under the same conditions.
Assay: At the end of the incubation period, cell cultures were fixed with a 50-50 mixture (v/v) acetone-methanol for 10 minutes at −20° C., followed by rehydration in PBS for 10 minutes at room temperature. DNA total content was determined by staining cells with DAPI (1 ug/ml) in PBS for 10 minutes at room temperature, followed by 3 washes with PBS. After staining, DAPI fluorescence was recorded (358 nm excitation/461 nm emission) with the 96-well plate reader Molecular Devices Spectramax M3; degree of small molecule-dependent proliferation inhibition was calculated from raw data.

IC50 (MIA PaCa-2 (Table 5A)) [µM] | IC50 (MIA PaCa-2) [µM] | SMILES | inhibition at 10 µM (MIA PaCa-2 (Table 5A)) [%] | inhibition at 10 µM (2-4 days, MIA PaCa-2) [%]
> 1 |  | CCOc1cccc(Nc2nc(-c3ccccn3)nc(O)c2OC)c1 [drawing 617] | 76 to 100 | 
> 1 |  | CO[C@H]1CC[C@@H](Nc2nc(-c3nccn3C)nc3sc(C(=O)N4CCOCC4)c(-c4ccccc4)c23)C1 [drawing 662] | 51 to 75 | 
 |  | Cn1ccnc1-c1nc(O)c2scc(-c3ccccn3)c2n1 [drawing 529] |  | 76 to 100
 | > 1 | COCCCNc1nc(-c2nccn2C)nc2sc(-c3ccn(C)n3)c(-c3ccc(OC)cc3)c12 [drawing 553] |  | 76 to 100
0.5 to 0.749 |  | CC(C)COc1ccc(-c2csc3c(O)nc(-c4nccn4Cc4ccccn4)nc23)cn1 [drawing 634] | 76 to 100 | 
 |  | CCN(CC)C(=O)c1nc(-c2nccn2C)nc(O)c1O [drawing 605] |  | 1 to 25
 |  | COC1CCN(c2nc(-c3nccn3C)nc3sc(-c4ccnc(N(C)C)c4)c(-c4ccccc4)c23)C1 (centres unmarked) [drawing 582] |  | 76 to 100
 |  | COc1c(O)nc(-c2ccccn2)nc1Oc1cccnc1 [drawing 589] |  | 0
 |  | CC(C)CN(C)C(=O)c1nc(-c2ccccn2)nc(O)c1O [drawing 600] |  | 0
> 1 |  | Cn1ccc(-c2sc3nc(-c4nccn4C)nc(N[C@@H]4CC[C@H](O)C4)c3c2-c2ccccc2)n1 (racemic) [drawing 644] | 26 to 50 | 
0.5 to 0.749 |  | COc1cccc(-c2sc3nc(-c4nccn4C)nc(N[C@H]4C[C@@H](OC)C4)c3c2-c2ccccc2)c1F [drawing 626] | 76 to 100 | 
 |  | COC1CCN(c2nc(-c3nccn3C)nc3sc(-c4cnc(C5CC5)o4)c(-c4ccccc4)c23)C1 (centres unmarked) [drawing 574] |  | 76 to 100
 |  | Oc1nc(-c2ncc3ccccn23)nc2c(-c3ccccn3)csc12 [drawing 538] |  | 76 to 100
> 1 |  | COC1CCC(Nc2nc(-c3nccn3C)nc3sc(-c4cccc(O)c4F)c(-c4ccccc4)c23)C1 (centres unmarked) [drawing 620] | 76 to 100 | 
 |  | COC1CCN(c2nc(-c3nccn3C)nc3sc(-c4ccccc4Cl)c(-c4cscn4)c23)C1 (centres unmarked) [drawing 557] |  | 76 to 100
 |  | COc1ncccc1-c1sc2nc(-c3nccn3C)nc(N3CCC(OC)C3)c2c1-c1ccccc1 (centres unmarked) [drawing 573] |  | 76 to 100
 |  | COC1CCN(c2nc(-c3nccn3C)nc3sc(-c4cccnc4)c(-c4ccccc4)c23)C1 (centres unmarked) [drawing 571] |  | 76 to 100
 | > 1 | COc1cccc(-c2sc3nc(-c4nccn4C)nc(N4CCC(OC)C4)c3c2-c2cscn2)c1 (centres unmarked) [drawing 559] |  | 76 to 100
 |  | COC1CCN(c2nc(-c3nccn3C)nc3sc(-c4ccc(N)nc4C)c(-c4ccccc4)c23)C1 (centres unmarked) [drawing 579] |  | 76 to 100
 |  | O=C(c1nc(-c2ccccn2)nc(O)c1O)N1CCOCC1 [drawing 595] |  | 0
 |  | COC1CCN(c2nc(-c3nccn3C)nc3sc(-c4ccncc4C)c(-c4ccccc4)c23)C1 (centres unmarked) [drawing 576] |  | 76 to 100

IC50 (MIA PaCa-2 (Table 5A)) [µM] | IC50 (MIA PaCa-2) [µM] | SMILES | inhibition at 10 µM (MIA PaCa-2 (Table 5A)) [%] | inhibition at 10 µM (2-4 days, MIA PaCa-2) [%]
> 1 |  | CO[C@H]1C[C@H](Nc2nc(-c3nccn3C)nc3sc(-c4ccn(C)n4)c(-c4ccccc4)c23)C1 [drawing 641] | 76 to 100 | 
0.75 to 1 |  | COc1c(F)cccc1-c1sc2nc(-c3nccn3C)nc(NC3CCC(OC)C3)c2c1-c1ccccc1 (centres unmarked) [drawing 621] | 76 to 100 | 
 | > 1 | COC1CCN(c2nc(-c3nccn3C)nc3sc(-c4ccn(C)n4)c(-c4ccccc4)c23)CC1 [drawing 552] |  | 76 to 100
0.5 to 0.749 |  | CO[C@H]1CC[C@@H](Nc2nc(-c3nccn3C)nc3sc(-c4ccn(C(C)C)n4)c(-c4ccccc4)c23)C1 [drawing 647] | 76 to 100 | 
0.75 to 1 |  | COc1cccc(-c2sc3nc(-c4nccn4C)nc(N[C@@H]4CC[C@H](OC)C4)c3c2-c2ccccc2)c1F [drawing 619] | 76 to 100 | 
 |  | COC1CCN(c2nc(-c3nccn3C)nc3sc(-c4ccccc4CO)c(-c4ccccc4)c23)C1 (centres unmarked) [drawing 580] |  | 76 to 100
< 0.5 |  | COc1cccc(Cn2ccnc2-c2nc(O)c3scc(-c4ccc(OCC(C)C)nc4)c3n2)c1 [drawing 635] | 76 to 100 | 
> 1 |  | COCCNC(=O)c1sc2nc(-c3nccn3C)nc(N[C@@H]3CC[C@H](OC)C3)c2c1-c1ccccc1 [drawing 660] | 76 to 100 | 
 |  | Cn1ccnc1-c1nc(O)c(O)c(C(=O)NC2CCCC2)n1 [drawing 607] |  | 0
 |  | COc1cc(-c2sc3nc(-c4nccn4C)nc(N4CCC(OC)C4)c3c2-c2ccccc2)ccn1 (centres unmarked) [drawing 569] |  | 76 to 100
> 1 |  | CO[C@H]1C[C@@H](Nc2nc(-c3nccn3C)nc3sc(-c4ccn(C)n4)c(C)c23)C1 [drawing 649] | 76 to 100 | 
0.5 to 0.749 |  | CO[C@H]1CC[C@@H](Nc2nc(-c3nccn3C)nc3sc(-c4ccn(C(C)C)n4)c(C)c23)C1 [drawing 654] | 76 to 100 | 
> 1 |  | CO[C@H]1CC[C@@H](Nc2nc(-c3nccn3C)nc3sc(C(=O)NC(C)C)c(-c4ccccc4)c23)C1 [drawing 659] | 76 to 100 | 
 |  | Oc1nc(-c2cn3cccnc3n2)nc2c(-c3ccccn3)csc12 [drawing 539] |  | 0
> 1 |  | COC1CCN(C(=O)c2sc3nc(-c4nccn4C)nc(N[C@H]4C[C@@H](OC)C4)c3c2-c2ccccc2)C1 (some centres unmarked) [drawing 658] | 26 to 50 | 
< 0.5 |  | COCCn1ccnc1-c1nc(O)c2scc(-c3ccc(OCC(C)C)nc3)c2n1 [drawing 633] | 76 to 100 | 
 |  | COc1cccc(-c2sc3nc(-c4nccn4C)nc(N4CCC(OC)C4)c3c2-c2ccccc2)c1F (centres unmarked) [drawing 586] |  | 76 to 100
 |  | O=C(NC1CCC1)c1nc(-c2ccccn2)nc(O)c1O [drawing 603] |  | 0
 |  | Cc1cnc(-c2nc(O)c3scc(-c4ccccn4)c3n2)n1C [drawing 536] |  | 76 to 100
> 1 |  | CO[C@H]1C[C@@H](Nc2nc(-c3nccn3C)nc3sccc23)C1 [drawing 638] | 26 to 50 | 
 |  | COC1CCN(c2nc(-c3nccn3C)nc3sc(-c4cnn(C)c4)c(-c4ccccc4)c23)C1 (centres unmarked) [drawing 577] |  | 76 to 100

IC50 (MIA PaCa-2 (Table 5A)) [µM] | IC50 (MIA PaCa-2) [µM] | SMILES | inhibition at 10 µM (MIA PaCa-2 (Table 5A)) [%] | inhibition at 10 µM (2-4 days, MIA PaCa-2) [%]
 | > 1 | COc1cccc(-c2csc3c(O)nc(-c4nccn4C)nc23)c1Cl [drawing 528] |  | 76 to 100
 | > 1 | COCC(C)Nc1nc(-c2nccn2C)nc2sc(-c3ccn(C)n3)c(-c3ccc(OC)cc3)c12 (centres unmarked) [drawing 554] |  | 76 to 100
 |  | Oc1nc(-c2ncc3n2CCCC3)nc2c(-c3ccccn3)csc12 [drawing 530] |  | 76 to 100
> 1 |  | CO[C@H]1C[C@@H](Nc2nc(-c3ccccn3)nc3sccc23)C1 [drawing 637] | 1 to 25 | 
> 1 |  | COc1c(O)nc(-c2ccccn2)nc1Nc1ccccc1 [drawing 615] | 76 to 100 | 
 |  | COc1c(O)nc(-c2ccccn2)nc1Oc1ccc(C(=O)N(C)C)cc1 [drawing 614] | 1 to 25 | 
0.75 to 1 |  | CO[C@H]1C[C@@H](Nc2nc(-c3ncc[nH]3)nc3sc(-c4ccn(C)n4)c(-c4ccccc4)c23)C1 [drawing 645] | 76 to 100 | 
0.75 to 1 |  | COc1c(F)cccc1-c1sc2nc(-c3nccn3C)nc(N[C@@H]3CC[C@H](OC)C3)c2c1-c1ccccc1 [drawing 622] | 76 to 100 | 
 | > 1 | Cn1ccc(-c2sc3nc(-c4nccn4C)nc(NC4CCOCC4)c3c2-c2ccccc2)n1 [drawing 546] |  | 1 to 25
0.75 to 1 |  | CO[C@H]1C[C@@H](Nc2nc(-c3nccn3C)nc3sc(-c4cnn(C)c4)c(-c4ccccc4)c23)C1 [drawing 627] | 76 to 100 | 
 |  | O=C(NCc1ccccc1)c1nc(-c2ccccn2)nc(O)c1O [drawing 597] |  | 26 to 50
 |  | Oc1nc(-c2nccn2Cc2ccccn2)nc2c(-c3ccccn3)csc12 [drawing 534] |  | 76 to 100
> 1 |  | CO[C@H]1C[C@@H](Nc2nc(-c3nccn3C)nc3sc(-c4ccn(C)n4)c(-c4ccccc4)c23)C1 [drawing 640] | 76 to 100 | 
 |  | COc1c(O)nc(-c2ccccn2)nc1Oc1ccccc1 [drawing 593] |  | 76 to 100
0.75 to 1 |  | COc1cccc(-c2sc3nc(-c4nc(C)cn4C)nc(N[C@@H]4CC[C@H](OC)C4)c3c2C)c1F [drawing 631] | 76 to 100 | 
> 1 |  | CO[C@H]1CC[C@@H](Nc2nc(-c3nc(C)cn3C)nc3sc(-c4cccc5[nH]ncc45)c(C)c23)C1 [drawing 632] | 76 to 100 | 
 |  | Cc1cn(C)c(-c2nc(O)c3scc(-c4ccccn4)c3n2)n1 [drawing 537] |  | 76 to 100
 | > 1 | COc1ccc(-c2c(-c3ccn(C)n3)sc3nc(-c4nccn4C)nc(N4CCC(OC)C4)c23)cc1 (centres unmarked) [drawing 555] |  | 76 to 100
 | > 1 | COCCNc1nc(-c2nccn2C)nc2sc(-c3cc(OC)ccc3Cl)c(-c3ccc(OC)cc3)c12 [drawing 563] |  | 76 to 100
